Holding throughout (type): in vivo
For assay [1], the system named is Alopecurus myosuroides. Put plainly: Test Example 4: herbicidal effect by application to foliage (diluvial soil, plastic box). In a few lines:
(§1)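 Scores run from 0 (herbicidal ratio ≤5%) to 5 (≥90%, almost fully withered) and were assessed three weeks after foliar spraying. Seedlings had been raised for 14 days at 25-30° C in sterilized diluvial soil before treatment, with the emulsion diluted in water to the stated g/ha dose.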

Assay [2] has as its system Setaria viridis. Described as above. The gist of the method: as §1
The test system of assay [3] is Abutilon theophrasti. The assay is described as above. In a few lines:
as §1

The subject of assay [4] is Amaranthus retroflexus. Described as above. As to conditions: Application herbicide amount 320 g/ha; foliage application. The gist of the method:
as §1

Assay [5] has as its system Apera spica-venti. The assay is described as above. In a few lines: as §1
Assay [6] has as its system Veronica persica. The assay is described as above. In a few lines:
as §1

Assay [7] has as its system Chenopodium album. The description is as above. The gist of the method: as §1
Assay [8] deals with Digitaria ciliaris. The description is as above. In a few lines: as §1
Assay [9] concerns Echinochloa crus-galli var. crus-galli. Put plainly: Test Example 3: herbicidal effect by application to foliage (Wagner pot, water depth 0.1-0.5 cm). Particulars: Nineteenth Table; application to foliage; application herbicide amount 320 g/ha. In a few lines:
(§2)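 Scores (0–5) reflect herbicidal ratio three weeks after a foliar spray: 0 is 5% or less, 5 is 90% or more. Plants had grown 14 days in alluvial soil pots in a 25–30 °C greenhouse before treatment with water-diluted emulsion at a set g/ha.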

Assay [10] has as its system Cyperus difformis. Described as above. Particulars: Nineteenth Table; application to foliage; application herbicide amount 320 g/ha. In a few lines: as §2
In assay [11] the test system is Leptochloa chinensis. The assay is described as above. Particulars: Nineteenth Table; application to foliage; application herbicide amount 320 g/ha. In a few lines: as §2
Assay [12] has as its system Stellaria media. Nature of the assay: Test Example 4: herbicidal effect by application to foliage (diluvial soil, plastic box). As to conditions: application to foliage, application herbicide amount 320 g/ha. The gist of the method: as §1
[13] abbreviates: Application herbicide amount 320 g/ha, foliage application.
Setting [14] is: Application herbicide amount 320 g/ha.
[15] abbreviates: application to foliage, application herbicide amount 320 g/ha.

`Cc1nnc(NC(=O)c2ccc(C(F)(F)F)n3c(N(C)C(C)C)nnc23)o1` [1-132]: the “J (Alopecurus myosuroides) herbicidal effect grade” value in [1] (setting [13]) was 1 (Herbicidal ratio of 5% or more and less than 20%). Also, the “G (Setaria viridis) herbicidal effect grade” value in assay [2] (setting [13]) was 3 (Herbicidal ratio of 40% or more and less than 70%). Further, in assay [3] (setting [13]), the “M (Abutilon theophrasti) herbicidal effect grade” value was 4 (Herbicidal ratio of 70% or more and less than 90%). Further, the “N (Amaranthus retroflexus) herbicidal effect grade” value in [4] is 3 (Herbicidal ratio of 40% or more and less than 70%). Also, the “L (Apera spica-venti.) herbicidal effect grade” value in assay [5] (setting [13]) was 2 (Herbicidal ratio of 20% or more and less than 40%). Further, in assay [6] (setting [13]), the “R (Veronica persica) herbicidal effect grade” value was 4 (Herbicidal ratio of 70% or more and less than 90%). Also, the “O (Chenopodium album) herbicidal effect grade” value in assay [7] (setting [13]) is on record as 5 (Herbicidal ratio of 90% or more (almost completely withered)). In [8] (setting [13]), the “F (Digitaria ciliaris) herbicidal effect grade” value is 4 (Herbicidal ratio of 70% or more and less than 90%). The “H (herbicidal effect grade)” value in [9] is 5 (Herbicidal ratio of 90% or more (almost completely withered)). In assay [10], the “E (herbicidal effect grade)” value is 4 (Herbicidal ratio of 70% or more and less than 90%). Besides, the “D (herbicidal effect grade)” value in assay [11] is 5 (Herbicidal ratio of 90% or more (almost completely withered)).

For `CN(C)c1nnc2c(C(=O)Nc3nnco3)ccc(C(F)(F)F)n12` [1-103], in [1] (setting [14]), the J was 2 (Herbicidal ratio of 20% or more and less than 40%). The G in [2] (setting [14]) is listed as 5 (Herbicidal ratio of 90% or more (almost completely withered)). Besides, the M in assay [3] (setting [14]) is 4 (Herbicidal ratio of 70% or more and less than 90%). For the same compound, the L in assay [5] (setting [14]) was 3 (Herbicidal ratio of 40% or more and less than 70%). In addition, the R in assay [6] (setting [14]) is given as 5 (Herbicidal ratio of 90% or more (almost completely withered)). The O in [7] (setting [14]) was 5 (Herbicidal ratio of 90% or more (almost completely withered)). Further, the F in assay [8] (setting [14]) is listed as 5 (Herbicidal ratio of 90% or more (almost completely withered)). Moreover, the “H (herbicidal effect grade)” value in [9] is recorded as 5 (Herbicidal ratio of 90% or more (almost completely withered)). The “E (herbicidal effect grade)” value in assay [10] is 5 (Herbicidal ratio of 90% or more (almost completely withered)). For the same compound, the “D (herbicidal effect grade)” value in assay [11] is given as 5 (Herbicidal ratio of 90% or more (almost completely withered)).

`Cc1nnc(NC(=O)c2ccc(C(F)(F)F)n3c(CC4CC4)nnc23)o1` [1-104]: the J in [1] (setting [14]) is 1 (Herbicidal ratio of 5% or more and less than 20%). For the same compound, the G in assay [2] (setting [14]) is listed as 5 (Herbicidal ratio of 90% or more (almost completely withered)). In addition, the M in [3] (setting [14]) was 4 (Herbicidal ratio of 70% or more and less than 90%). The L in assay [5] (setting [14]) was 2 (Herbicidal ratio of 20% or more and less than 40%). Besides, the R in assay [6] (setting [14]) was 4 (Herbicidal ratio of 70% or more and less than 90%). For the same compound, in assay [7] (setting [14]), the O was 5 (Herbicidal ratio of 90% or more (almost completely withered)). The F in assay [8] (setting [14]) is listed as 5 (Herbicidal ratio of 90% or more (almost completely withered)). The “H (herbicidal effect grade)” value in [9] is 5 (Herbicidal ratio of 90% or more (almost completely withered)). Also, the “E (herbicidal effect grade)” value in assay [10] was 4 (Herbicidal ratio of 70% or more and less than 90%). In addition, the “D (herbicidal effect grade)” value in [11] is on record as 5 (Herbicidal ratio of 90% or more (almost completely withered)).

As for `CC(=O)OCc1nnc2c(C(=O)Nc3nnc(C)o3)ccc(C(F)(F)F)n12` [1-062], in assay [1] (setting [14]), the J is 1 (Herbicidal ratio of 5% or more and less than 20%). Also, in [2] (setting [14]), the G is 3 (Herbicidal ratio of 40% or more and less than 70%). Moreover, in [3] (setting [14]), the M is listed as 5 (Herbicidal ratio of 90% or more (almost completely withered)). The L in assay [5] (setting [14]) was 1 (Herbicidal ratio of 5% or more and less than 20%). In addition, the R in assay [6] (setting [14]) was 4 (Herbicidal ratio of 70% or more and less than 90%). Further, the O in [7] (setting [14]) is recorded as 5 (Herbicidal ratio of 90% or more (almost completely withered)). For the same compound, in assay [8] (setting [14]), the F was 5 (Herbicidal ratio of 90% or more (almost completely withered)). For the same compound, in assay [9], the “H (herbicidal effect grade)” value is on record as 5 (Herbicidal ratio of 90% or more (almost completely withered)). Moreover, in [10], the “E (herbicidal effect grade)” value is 4 (Herbicidal ratio of 70% or more and less than 90%). The “D (herbicidal effect grade)” value in [11] was 4 (Herbicidal ratio of 70% or more and less than 90%).

Turning to `COCCOC(=O)Cc1nnc2c(C(=O)Nc3nnc(C)o3)ccc(C(F)(F)F)n12` [1-060], in [1] (setting [14]), the J is 2 (Herbicidal ratio of 20% or more and less than 40%). In addition, the G in assay [2] (setting [14]) is 3 (Herbicidal ratio of 40% or more and less than 70%). The M in assay [3] (setting [14]) was 4 (Herbicidal ratio of 70% or more and less than 90%). Further, in assay [5] (setting [14]), the L is 1 (Herbicidal ratio of 5% or more and less than 20%). The R in assay [6] (setting [14]) is on record as 5 (Herbicidal ratio of 90% or more (almost completely withered)). Moreover, in [7] (setting [14]), the O is 5 (Herbicidal ratio of 90% or more (almost completely withered)). In addition, the F in [8] (setting [14]) is given as 5 (Herbicidal ratio of 90% or more (almost completely withered)). Also, in assay [9], the “H (herbicidal effect grade)” value was 5 (Herbicidal ratio of 90% or more (almost completely withered)). Besides, the “E (herbicidal effect grade)” value in assay [10] is 3 (Herbicidal ratio of 40% or more and less than 70%). Moreover, the “D (herbicidal effect grade)” value in [11] was 4 (Herbicidal ratio of 70% or more and less than 90%).

As for `COC1CCC(c2nnc3c(C(=O)Nc4nnc(C)o4)ccc(C(F)(F)F)n23)CC1` (stereo not drawn) [1-169], the “J: herbicidal effect on Alopecurus myosuroides” value in [1] (setting [15]) was 1 (Herbicidal ratio of 5% or more and less than 20%). In assay [2] (setting [15]), the “G: herbicidal effect on Setaria viridis” value is 3 (Herbicidal ratio of 40% or more and less than 70%). For the same compound, the “M: herbicidal effect on Abutilon theophrasti” value in [3] (setting [15]) is 3 (Herbicidal ratio of 40% or more and less than 70%). The “L: herbicidal effect on Apera spica-venti.” value in assay [5] (setting [15]) is 1 (Herbicidal ratio of 5% or more and less than 20%). In addition, the “R: herbicidal effect on Veronica persica” value in [6] (setting [15]) was 4 (Herbicidal ratio of 70% or more and less than 90%). Further, the “P: herbicidal effect on Stellaria media” value in [12] is given as 5 (Herbicidal ratio of 90% or more (almost completely withered)). Further, in assay [7] (setting [15]), the “O: herbicidal effect on Chenopodium album” value is 5 (Herbicidal ratio of 90% or more (almost completely withered)). In addition, in assay [8] (setting [15]), the “F: herbicidal effect on Digitaria ciliaris” value was 4 (Herbicidal ratio of 70% or more and less than 90%). The “H (herbicidal effect grade)” value in assay [9] was 5 (Herbicidal ratio of 90% or more (almost completely withered)). Also, the “D (herbicidal effect grade)” value in [11] is 4 (Herbicidal ratio of 70% or more and less than 90%).

As for `COCCSc1nnc2c(C(=O)Nc3nnc(C)o3)ccc(C(F)(F)F)n12` [1-063], the J in assay [1] (setting [14]) was 2 (Herbicidal ratio of 20% or more and less than 40%). In assay [2] (setting [14]), the G is 5 (Herbicidal ratio of 90% or more (almost completely withered)). Further, in assay [3] (setting [14]), the M is 4 (Herbicidal ratio of 70% or more and less than 90%). Moreover, the L in [5] (setting [14]) is 3 (Herbicidal ratio of 40% or more and less than 70%). The R in assay [6] (setting [14]) is 5 (Herbicidal ratio of 90% or more (almost completely withered)). Further, the O in [7] (setting [14]) is recorded as 5 (Herbicidal ratio of 90% or more (almost completely withered)). Moreover, the F in assay [8] (setting [14]) is listed as 5 (Herbicidal ratio of 90% or more (almost completely withered)). Also, in assay [9], the “H (herbicidal effect grade)” value is on record as 5 (Herbicidal ratio of 90% or more (almost completely withered)). For the same compound, the “E (herbicidal effect grade)” value in assay [10] is listed as 5 (Herbicidal ratio of 90% or more (almost completely withered)). In addition, in assay [11], the “D (herbicidal effect grade)” value is 5 (Herbicidal ratio of 90% or more (almost completely withered)).

As for `Cc1nnc(NC(=O)c2ccc(C(F)(F)F)n3c(-c4cc5ccccc5n4C)nnc23)o1` [1-059], in assay [1] (setting [14]), the J is recorded as 0 (Herbicidal ratio of 5% or less (almost no effect)). Moreover, in [2] (setting [14]), the G was 0 (Herbicidal ratio of 5% or less (almost no effect)). Moreover, the M in assay [3] (setting [14]) was 4 (Herbicidal ratio of 70% or more and less than 90%). The L in assay [5] (setting [14]) was 0 (Herbicidal ratio of 5% or less (almost no effect)). Also, the R in [6] (setting [14]) was 2 (Herbicidal ratio of 20% or more and less than 40%). In addition, in [7] (setting [14]), the O is on record as 5 (Herbicidal ratio of 90% or more (almost completely withered)). Besides, the F in assay [8] (setting [14]) is 0 (Herbicidal ratio of 5% or less (almost no effect)). Moreover, in assay [9], the “H (herbicidal effect grade)” value is 0 (Herbicidal ratio of 5% or less (almost no effect)). For the same compound, in assay [10], the “E (herbicidal effect grade)” value is 3 (Herbicidal ratio of 40% or more and less than 70%). The “D (herbicidal effect grade)” value in assay [11] is 3 (Herbicidal ratio of 40% or more and less than 70%).

In the case of `C=CCSc1nnc2c(C(=O)Nc3nnc(C)o3)ccc(C(F)(F)F)n12` [1-064], in assay [1] (setting [14]), the J was 1 (Herbicidal ratio of 5% or more and less than 20%). In assay [2] (setting [14]), the G is 4 (Herbicidal ratio of 70% or more and less than 90%). Besides, the M in assay [3] (setting [14]) was 3 (Herbicidal ratio of 40% or more and less than 70%). In [5] (setting [14]), the L was 1 (Herbicidal ratio of 5% or more and less than 20%). The R in [6] (setting [14]) was 3 (Herbicidal ratio of 40% or more and less than 70%). Also, the F in [8] (setting [14]) is recorded as 5 (Herbicidal ratio of 90% or more (almost completely withered)). In assay [9], the “H (herbicidal effect grade)” value was 5 (Herbicidal ratio of 90% or more (almost completely withered)). Also, the “E (herbicidal effect grade)” value in assay [10] was 4 (Herbicidal ratio of 70% or more and less than 90%). The “D (herbicidal effect grade)” value in [11] was 4 (Herbicidal ratio of 70% or more and less than 90%).

For the origin of these results see patent US9708314B2, “Heterocyclic amide compound” (NISSAN CHEMICAL INDUSTRIES, LTD., priority 2013, dated 2017).
